Patent US8865776B2, “Use of low molecular weight amino alcohols in ophthalmic compositions” (Alcon Research, Ltd., priority 1996, dated 2014)

System: S. marcescens
Experiment: Anti-microbial activity, log reduction of survivors after inoculation
Type: cell-based
Details: saline solution with 1.2% amino alcohol, 0.3% sodium chloride, 0.05% disodium edetate, pH 7.4
Protocol: The antibacterial activity of the above-described saline solutions against S. marcescens was evaluated. The formulations were evaluated by inoculating 20 ml of each solution with 0.1 ml of a microbial suspension. The final concentration was 10^6 colony forming units (“CPUs”) per ml. At each time point, pour plates of SCDA were prepared containing diluted aliquots of the various test samples. The bacteria and yeast plates were incubated at 30° to 35° C. for 2 to 3 days. The mold plates were incubated at 20° to 25° C. for five days. Following the colony incubation period, the number of CFUs were counted and the log reduction of the CFUs relative to the starting amount was calculated. The anti-microbial activity of the formulations against S. marcescens and P. aeruginosa was evaluated.

Compound: CC(N)(CO)CO [AMPD, 2-amino-2-methyl-1,3-propanediol]
- Log Reduction of Survivors (6 hours): 0.0 log
- Log Reduction of Survivors (24 hours): 0.0 log

Compound: OCCN1CCN(CCO)CC1 [BHP, 1,4-Bis(2-hydroxyethyl)-piperazine, reference compound]
- Log Reduction of Survivors (6 hours): 0.1 log
- Log Reduction of Survivors (24 hours): 0.1 log

Compound: CCC(N)(CO)CO [AEPD, 2-amino-2-ethyl-1,3-propanediol]
- Log Reduction of Survivors (6 hours): 0.0 log
- Log Reduction of Survivors (24 hours): 0.7 log

Compound: CN(C)C(C)(C)CO [DMAMP, 2-dimethylamino-methyl-1-propanol]
- Log Reduction of Survivors (6 hours): 0.0 log
- Log Reduction of Survivors (24 hours): 0.7 log

Compound: CC(C)(N)CO [AMP, 2-amino-2-methyl-1-propanol]
- Log Reduction of Survivors (6 hours): 0.1 log
- Log Reduction of Survivors (24 hours): 0.5 log
